Where no end group is shown, it is not given here.
Experiments:
[1] = target: T1, Ca^2+/CaM (Homo sapiens, UniProt P0DP23); test: Circular dichroism (CD) spectroscopy; assay type: physicochemical; conditions: 25°C, 10 mM HEPES (pH 7), 50 mM KCl, 2.5 mM CaCl2
T1 construct: made in house
Experimental: CD spectra were acquired on a Jasco J815 spectropolarimeter at 25°C from 260 to 185 nm. Scanning rate was set to 50 nm/min. Loading concentrations were ~16–20 μM for free peptides, 18 μM for free Ca^2+/CaM and 10 μM for the complexes in a buffer containing 10 mM HEPES (pH 7), 50 mM KCl, and 2.5 mM CaCl2. The background signal from the buffer solution was subtracted from each spectrum. Ca^2+/CaM complexes with peptides were run on gel filtration column (as described above) to ensure high purity and homogeneity prior to collection of the CD spectra.

[2] = target: T2, Ca^2+/CaM-N (Homo sapiens, UniProt P0DP23); test: NMR titration (2D 1H-15N HSQC) of isolated N-terminal lobe; assay type: binding; conditions: 1H-15N HSQC titration
T2 construct: ^15N-labled samples of the isolated Ca^2+/CaM-N and Ca^2+/CaM-C domains; made in house
Experimental: NMR data were collected at 35°C on a Bruker Avance II (700 MHz ^1H) spectrometer equipped with a cryogenic triple-resonance probe, processed with NMRPIPE [35] and analyzed with NMRVIEW [36] or CCPN Analysis. […] For signal assignments of the complexes, ^13C-, ^15N-, or ^13C-/^15N-labeled Ca^2+/CaM at ~400–500 μM was mixed with unlabeled Fas-Pep1 (in 100% DMSO-d6) or Fas-Pep2 at 1.5:1 peptide:Ca^2+/CaM. […] The backbone atom resonances of Ca^2+/CaM complexes with Fas-Pep1 and Fas-Pep2 were assigned using HNCA, HN(CO)CA, HNCACB, HNCO, HN(CO)CACB and ^15N-edited NOESY-HSQC and TOCSY-HSQC experiments. These experiments have been also collected on ^15N-, or ^13C-/^15N-labeled Fas-Pep2 in complex with unlabeled Ca^2+/CaM to confirm the α-helical character of Fas-Pep2 when bound to Ca^2+/CaM. […] Combined ^1H-^15N chemical shift changes were calculated as ΔδHN = [(ΔδH)^2+(ΔδN/5)^2]^1/2, where ΔδH and ΔδN are the ^1H and ^15N chemical shift changes, respectively. Kd values were calculated by non-linear least-square fitting algorithm in Origin software (OriginLab, Northampton, MA) using the equation: ΔδHN=ΔδHN^max((Kd+L0+P0)−((Kd+L0+P0)^2−4*P0*L0)^0.5)/(2*P0) where ΔδHN^max is the chemical shift change between complex and free protein, L0 total concentration of ligand, and P0 total concentration of protein. […]

secondary structure of free peptide/protein ([1]; far-UV CD, ~16–20 μM peptide, 18 μM Ca^2+/CaM): random coil | CSPs on Ca^2+/CaM-N [2]: significant CSPs for numerous residues
Sequence: VQDTAEQKVQLLRNWHQLHGKKEAYDTLIKDLKKANLC [Fas-Pep2]
change in CD signal at 208 and 222 nm of Ca^2+/CaM on peptide binding ([1]; complex 10 μM): An increase in the intensity of the CD signal at 208 and 222 nm
